These results are taken from patent US10280179B2, “Spiroquinoxaline derivatives as inhibitors of non-apoptotic regulated cell-death” (Helmholtz Zentrum Munchen—Deutches Forschungszentrum Fur …, priority 2013, dated 2019).

For data set [1], the system named is Pfa1 cells. As to the kind of experiment: Inhibition of non-apoptotic cell death after tamoxifen-induced GPx4 knockout in a recombinant cell line (Example B.4). Type of data set: cell-based. Particulars: Mus musculus, read-out: Pfa1/TAM IC50. The method in brief: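 Immortalised murine fibroblasts with tamoxifen-inducible CreERT2 for ablation of both GPx4 copies (Pfa1 cells) received tamoxifen on day 0 together with test compound. Cell survival was measured by AlamarBlue after 72 hours.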

Data set [2] can be described thus: Cellular toxicity, same assay as Example B.4 without TAM (Example B.5). It is filed as cell-based. Conditions: mouse; Pfa1 cells without TAM; read-out: TC50 (the source's name). The text has this: Cellular Toxicity of Compounds of the Invention
An estimate of the toxicity for compounds of the invention was obtained by using the same assay as described in Example B.4, but without the addition of TAM. […] Such TC50 values obtained for certain compounds disclosed herein, together with an approximate therapeutic window (estimated by dividing each TC50 by the corresponding IC50 determined from example B.4) are shown in Table 3.

In data set [3] the test system is SH-SY5Y cells. As to the kind of experiment: TNF-alpha-induced apoptosis, specificity for non-apoptotic cell death (Example B.3). Type of data set: cell-based, human. Conditions: compound 1 μM, TNF-alpha 10 ng/mL, FIG. 1. The protocol: SH-SY5Y cells were propagated and seeded in 96-well plates, together with compound N-1, N-2, N-10 of Table 1-N (FIG. 1(a)), compound O/S-6 or O/S-3 of Table 1-O/S (FIG. 1(b)), or compound C-12, C-91, or C-205 of Table 1-C (FIG. 1(c)) (each 1 μM) and TNF-alpha was added (final concentration: 10 ng/mL) to induce apoptosis. The apoptosis and pan-caspase inhibitor z-vad (final concentration: 50 μM) and the necroptosis inhibitor Necrostatin-1 (Nec-1; final concentration: 5 μM) were used for comparison. Control wells were established with vehicle only (DMSO), with and without treatment with TNF-alpha to induce apoptosis. Cells were incubated, and cell survival was detected and quantified. Percentage cell survival after TNF-alpha-induced apoptosis is shown (error bars indicate standard deviation (SD)).
Briefly, SH-SY5Y cells were propagated and seeded in 96-well plates, together with the compound to be tested (1 μM), generally as described in Example B.1, except they were seeded at 1,000 cell/well and instead of BSO, TNF-alpha (Invitrogen) was added to a final concentration of 10 ng/mL to induce apoptosis. The apoptosis and pan-caspase inhibitor Z-VAD-fmk (Enzo Life Science; final concentration 50 μM) and the necroptosis inhibitor Necrostatin-1 (Nec-1; Enzo Life Science; final concentration 5 μM) were used for comparison. Control wells were established with vehicle only (DMSO), with and without treatment with TNF-alpha to induce apoptosis. Cells were incubated, and cell survival was detected and quantified as described in Example B.1.

For data set [4], the system named is mouse hippocampal cell line (Ht22). The data set is described as follows: Inhibition of glutamate-induced non-apoptotic cell death (Example B.2). It is filed as cell-based. Conditions: HT-22, Ht22 cells. The method in brief: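 Protection from lethal glutamate (5 mM final) measured in mouse hippocampal Ht22 cells co-treated at seeding with compound from 0.5 pM to 100 μM, in triplicate. Survival read after 72 h at 37 °C/5% CO2, against glutamate-only and alpha-tocopherol controls.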

Data set [5] concerns human neuroblastoma cell line SH-SY5Y. As to the kind of experiment: Inhibition of BSO-induced non-apoptotic cell death (Example B.1). Type of data set: cell-based. Particulars: SH-SY5Y cells, 72 hours. The method in brief: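 SH-SY5Y cells exposed to 50 μM BSO together with compound (0.5 pM–100 μM, triplicate) for 72 h at 37°C, 5% CO2. Survival measured by AquaBluer fluorescence (ex 530–560/em 590 nm), normalised to percent surviving cells, and IC50 derived.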

[6] abbreviates: glutamate 5 mM, 72 hours, cell survival, read-out: Ht22/GLU (Example B.2) IC50.
Setting [7] is: glutamate-induced cell death, read-out: Ht22/GLU.
Where [8] appears, read: 50 μM BSO, read-out: SH-SY5Y/BSO IC50.
The mark [9] stands for this setting: BSO 50 μM, cell survival (AquaBluer), read-out: SH-SY5Y/BSO (Example B.1) IC50.

Where two headings read alike, the source gives them in different places.

Regarding `Clc1ccccc1CNC1=Nc2ccccc2NC12CCCCCC2` [C-205], the IC50 in data set [1] is below 200 nM; in data set [4] (setting [6]), around 100 nM; in data set [4] (setting [7]) it was below 500 nM; in data set [5] (setting [8]), below 100 nM; in data set [5] (setting [9]), 46.7 nM. Also, the CC50 in data set [2] lay within 20000 to 50000 nM. In addition, the “Percentage cell survival after TNF-alpha-induced apoptosis” value (“Percentage cell survival” for short) in data set [3] is “Non-inhibition of apoptotic cell-death”.
In the case of `Clc1ccccc1CNC1=Nc2ccccc2NC12CCNCC2` [N-1], the IC50 in data set [1] is below 50 nM; in data set [4] (setting [6]), 10.3 nM; in data set [4] (setting [7]), below 200 nM; in data set [5] (setting [8]), below 20 nM; in data set [5] (setting [9]) it was 6.51 nM. The CC50 in data set [2] was in the range of 10000 to 20000 nM. In data set [3], the “Percentage cell survival” value is given as “Non-inhibition of apoptotic cell-death”.
Regarding `CC1CCC2(CC1)Nc1ccccc1N=C2NCc1ccccc1Cl` (stereo not shown) [C-91], the IC50 in data set [1] is below 200 nM; in data set [4] (setting [6]) it was around 50 nM; in data set [4] (setting [7]), below 200 nM; in data set [5] (setting [8]), below 20 nM; in data set [5] (setting [9]), 9.33 nM. For the same molecule, in data set [2], the CC50 lay within 10000 to 20000 nM. In addition, in data set [3], the “Percentage cell survival” value is listed as “Non-inhibition of apoptotic cell-death”.
For `Clc1ccc(CNC2=Nc3ccccc3NC23CCOCC3)cc1` [O/S-3], the IC50 in data set [1] was below 500 nM; in data set [4] (setting [6]), around 100 nM; in data set [4] (setting [7]) it was below 100 nM; in data set [5] (setting [8]), below 500 nM; in data set [5] (setting [9]) it was around 100 nM. Moreover, the CC50 in data set [2] lay within 20000 to 50000 nM. Further, the “Percentage cell survival” value in data set [3] is “Non-inhibition of apoptotic cell-death”.
